Test results from patent US20160324770A1, “INTRATHECAL ADMINISTRATION, PREFERABLY INTRAVENTRICULAR, OF MTOR INHIBITORS FOR THE THERAPY OF SOME NEURODEGENERATIVE, NEUROINFLAMMATORY AND NEURO-ONCOLOGIC DISEASES” (priority 2012, published 2016).
Read-outs that look alike come from different tables or passages of the source.

Key:
[1] = Blood and brain concentrations and metabolites (LC-MS) after intraventricular (intracerebral) administration by osmotic pump; format: in vivo; conditions: mice that had received intrathecal treatment
[2] = as above; format: in vivo, mice
Excerpt: (§1) Intraventricular infusion: Under general anaesthesia obtained with Ketamine/Xylazine, Alzet osmotic pumps (http://www.alzet.com/products/guide_to_use/pump_selection.ht ml) were implanted subcutaneously on the back; a catheter leading from the pump reached the cranial vault, where it was connected to a connector (Brain Kit 3, Alzet) stereotaxically implanted in the cranium until reaching the lateral ventricle. These pumps are capable of infusing their content at a constant speed for 1-4 weeks.
A quantitative analysis of everolimus in blood and tissue samples was performed with the isotopic dilution method using the LC-MS technique. The chromatographic system was the following: Agilent 1290 Infinity HPLC equipped with a binary pump and HiP Auto Sampler model G4226A. The injection volume was 2 μL, the analytical column used was a Phenomenex Kinetics PFP UHPLC column (Phenomenex, Milan, Italy) […], 1.7 μm, 100 Å, temperature controlled at 55° C. A gradient elution was performed using as solvent A: water with 5 mM ammonium formiate, solvent B: methanol with 0.1% formic acid. The elution profile was the following: solvent A 30%/solvent B 70% for 3 minutes, solvent A 1%/solvent B 99% from 3 to 6 minutes, at a flow velocity of 0.25 mL/min. This setup enabled an elution time of 2.5 minutes. Every injection was preceded by a cycle of washing the injector system with methanol.
Mass spectrometry was conducted using a Q-TOF MS detector model G6540A (Agilent, Germany) equipped with a Dual AJS ESI (electrospray ionization interface) system. The instrument parameters were the following: sheath gas flow: […], sheath gas temperature: 300° C., gas flow: 6 L/min, gas temperature: 300° C., nebulizer pressure: 35 psi, ion spray voltage: 5500 V.
Both everolimus and the isotopic internal standard were detected as ammonium adducts in the positive ion mode.
Everolimus was extracted from whole blood in 1 mL of a methanol solution containing 10% ammonium acetate in order to enable precipitation of most of the serum protein.
The blood samples were freeze-dried and subsequently extracted. The extraction process was carried out in a sonication bath for approx. 10 minutes to ensure complete haemolysis and release of the drug from the cell material.
The process of extraction from brain samples, divided into right and left hemispheres, was similar to the one for whole blood. The tissue samples were weighed and subsequently freeze-dried. After freeze-drying the samples were finely chopped to facilitate subsequent extraction. 1 mL of the methanol solution was then added to 1% v/v of ammonium formiate with 200 ng/mL of internal standard. The samples were then subjected to 10 minutes of sonication and vortexed to ensure complete extraction of the drug. Then followed centrifugation (10 minutes, 4000 rpm, 10° C.) and the supernatant was separated from the pellet. As previously described, the solutions were purified by means of HybridSPE®-Phospholipid solid-phase extraction cartridges with a total volume of 1 ml (Sigma Aldrich, Milan) to eliminate the excess lipid material. The samples were then immediately submitted to LC-MS analysis.
(§2) We then decided to look for the maximum tolerable dose by intraventricular administration of everolimus at concentrations 10 times higher than those shown in Table 1: A=25 mg/Kg, B=12.5 mg/Kg, C=[…].
Though they could not be quantified, the presence of metabolites deriving from the transformation of the drug has been noted in the table.

[3] = system: AD triple transgenic mouse (3xTg-AD); assay: Alzheimer's disease mouse model, intraventricular osmotic pumps; format: in vivo, 3xTg-AD mouse; conditions: local application, same dosage as in EAE mice
Excerpt: We carried out trials in mouse models exemplifying 3 families of neurological diseases: • EAE (Experimental Autoimmune Encephalomyelite, model of neuroinflammatory disease): SJL/j mice were immunized with two subcutaneous injections, performed 7 days apart, of proteolipid protein (PLP139-151), Freund's adjuvant and inactivated Mycobacterium tuberculosis. The disease severity was rated with a clinical score: 0=healthy; 1=tail weakness; 2=rear limb ataxia and/or paresis; 3=rear limb paralysis and/or front limb paresis; 4=tetraplegia; 5=state of agony or death • AD (Alzheimer's Disease, model of neurodegenerative disease): AD triple transgenic mouse (3xTg-AD) supplied by Jackson Laboratories (http://jaxmice.jax.org/strain/004807.html) Their memory was evaluated using the Passive Avoidance and Radial Maze tests; • TSC (Tuberous sclerosis complex, model of neuro-oncologic disease): TSC1 mouse with TSC1 gene within a flox cassette, supplied by Jackson Laboratories (http://jaxmice.jax.org/strain/005680.html)
We applied intraventricular catheters and everolimus-secreting osmotic pumps implanted subcutaneously on the back of 12 AD mice for 4 weeks. We infused a vehicle to an equal number of mice. We injected everolimus into 10 healthy mice and, finally, the vehicle into another 10. The appropriate pump was replaced after 4 weeks and kept in place for another 4. […]

[4] = cited from earlier work
[5] = mouse, in vivo, 25 mg/kg
Excerpt: as §1, §2
Therefore, that dose was ruled out and the mice were sacrificed. […] For the subsequent assessment of therapeutic effectiveness in the different animal models, dose B (12.5 mg/Kg) was selected.

[6] = dose A=25 mg/Kg intraventricular, treated 3 days
[7] = dose B=12.5 mg/Kg intraventricular, treated 14 days
[8] = dose C=6.125 mg/Kg intraventricular, treated 14 days

CO[C@H]1C[C@@H]2CC[C@@H](C)[C@@](O)(O2)C(=O)C(=O)N2CCCC[C@H]2C(=O)O[C@H]([C@H](C)C[C@@H]2CC[C@@H](OCCO)[C@H](OC)C2)CC(=O)[C@H](C)/C=C(\C)[C@@H](O)[C@@H](OC)C(=O)[C@H](C)C[C@H](C)/C=C/C=C/C=C/1C [everolimus]
Blood concentration (detectable only in traces) [1]: < 1 mg/kg
Metabolites ([2]; dose A, brain field T8 dx): No metabolites
Metabolites ([2]; dose A, brain field T9 sx): No metabolites
Brain Conc [2, 6]: 20.4 ng/g
Conc/250 mg brain, Left hemisphere [2, 6]: 4.9 ± 2.3 /250 mg brain
Conc/250 mg brain, Right hemisphere [2, 6]: 5.3 ± 2.8 /250 mg brain
Metabolites ([2]; dose B, brain field T5- dx): No metabolites
Metabolites ([2]; dose B, brain field T6 sx): No metabolites
Brain Conc [2, 7]: 12 to 16 ng/g
Conc/250 mg brain, Left hemisphere [2, 7]: 2.91 ± 0.8 /250 mg brain
Conc/250 mg brain, Right hemisphere [2, 7]: 3.1 ± 1.6 /250 mg brain
Metabolites ([2]; dose C, brain field T1- dx): No metabolites
Metabolites ([2]; dose C, brain field T1- sx): No metabolites
Metabolites ([2]; dose C, brain field T2- dx): No metabolites
Metabolites ([2]; dose C, brain field T2- sx): No metabolites
Brain Conc [2, 8]: 11.8 ng/g
Conc/250 mg brain, Left hemisphere [2, 8]: 2.5 ± 0.2 /250 mg brain
Conc/250 mg brain, Right hemisphere [2, 8]: 3.4 ± 0.7 /250 mg brain
concentration at 3 days ([2]; mouse, whole blood, other: intraventricular infusion by osmotic pump, dose A=25 mg/Kg intraventricular, treated 3 days, read-out: Conc, Blood): < 1000 ng/g
concentration at 14 days ([2]; mouse, whole blood, other: intraventricular infusion by osmotic pump, dose B=12.5 mg/Kg intraventricular, treated 14 days, read-out: Conc, Blood): < 1000 ng/g
concentration at 14 days ([2]; mouse, whole blood, other: intraventricular infusion by osmotic pump, dose C=6.125 mg/Kg intraventricular, treated 14 days, read-out: Conc, Blood): < 1000 ng/g
Pharmacological activity observed in AD mice [3]: an increase in autophagy
half-life [4]: 28 to 32 h
Tolerability observations [5]: reduction in spontaneous motility and a very slight weight reduction
